Reference: ChEMBL document CHEMBL4219154, “Design, synthesis, nuclear localization, and biological activity of a fluorescent duocarmycin analog, HxTfA” (Bioorg Med Chem Lett, 2018)
pIC50: −log10 of the molar value. The source made the active and inactive calls. No cut-off for these calls is given here.

How the values were obtained:
Escherichia coli [1] = assay: Alkylating activity at N3 position of 5'-AAAAA-3' (865) in Escherichia coli pUC18 DNA at 1 uM after 5 hrs by electrophoresis analysis; type: functional
[2] = Drug uptake in nucleus of human A549 cells at 50 to 100 uM after 24 hrs by mitrotracker red CMXRos staining based fluorescence microscopy; type: ADME, subcellular; details: a549, 24 h
A549 [3] = assay: Induction of apoptosis in human A549 cells assessed as increase in gamma-H2AX level at 0.1 to 5 uM incubated for 5 hrs followed by 24 hrs incubation in drug free medium by confocal microscopy; type: functional, cell-based
Plasmodium falciparum = assay: Antiplasmodial activity against Plasmodium falciparum 3D7 infected in red blood cells after 48 hrs; type: functional, organism-based; details: 3D7, 48 h
A549 [4] = assay: Induction of apoptosis in human A549 cells assessed as decrease in survivin level at 1 to 20 uM incubated for 5 hrs followed by 24 hrs incubation in drug free medium by immunoblotting based confocal microscopy; type: functional, cell-based
A549 [5] = assay: Induction of apoptosis in human A549 cells assessed as decrease in Bcl-xL level at 0.1 to 20 uM incubated for 5 hrs followed by 24 hrs incubation in drug free medium by immunoblotting based confocal microscopy; type: functional, cell-based
A549 [6] = assay: Induction of apoptosis in human A549 cells assessed as increase in gamma-H2AX level at 0.1 to 10 uM incubated for 5 hrs followed by 24 hrs incubation in drug free medium by immunofluorescence assay; type: functional, cell-based
A549 [7] = assay: Induction of apoptosis in human A549 cells assessed as increase in cleaved caspase 3 level at 1 uM incubated for 5 hrs followed by 24 hrs incubation in drug free medium by immunofluorescence assay; type: functional, cell-based
[8] = Drug uptake in nucleus of human A549 cells at 1 uM after 24 hrs by propidium iodide staining based confocal microscopy; type: ADME, subcellular; details: a549, 24 h
Escherichia coli [9] = assay: Induction of DNA cleavage at AT-mixed sequence 5'-TTTTA-3'(843) in Escherichia coli pUC18 DNA at 0.1 to 30 uM after 5 hrs by electrophoresis analysis
A549 [10] = assay: Cytotoxicity against human A549 cells after 4 days by MTT assay; type: functional, cell-based; details: A549, 96 h
A549 [11] = assay: Induction of apoptosis in human A549 cells assessed as decrease in Bcl-xL level at 0.05 to 20 uM incubated for 5 hrs followed by 24 hrs incubation in drug free medium by immunoblotting based confocal microscopy; type: functional, cell-based
A549 [12] = assay: Induction of apoptosis in human A549 cells assessed as decrease in survivin level at 0.1 uM incubated for 5 hrs followed by 24 hrs incubation in drug free medium by immunoblotting based confocal microscopy; type: functional, cell-based
A549 [13] = assay: Cytotoxicity against human A549 cells after 3 days by MTT assay; type: functional, cell-based; details: A549, 72 h
B16 = assay: Cytotoxicity against mouse B16 cells after 3 days by MTT assay; type: functional, cell-based; details: B16, 72 h
Escherichia coli [14] = assay: Alkylating activity at N3 position of 5'-AAAAA-3' (865) in Escherichia coli pUC18 DNA at 0.1 uM after 5 hrs by electrophoresis analysis; type: functional

SMILES	Activity (Escherichia coli [1])	Drug uptake [2]	Activity (A549 [3])	pIC50 (Plasmodium falciparum)	Activity (A549 [4])	Activity (A549 [5])	Activity (A549 [6])	Activity (A549 [7])	Drug uptake [8]	Activity (Escherichia coli [9])	pIC50 (A549 [10])	Activity (A549 [11])	Activity (A549 [12])	pIC50 (A549 [13])	pIC50 (B16)	Activity (Escherichia coli [14])
COc1ccc(-c2nc3ccc(C(=O)N4CC(CCl)c5c4cc(O)c4ccoc54)cc3[nH]2)cc1 (stereo not given)	Active	Active	Active	8.43	Active	inactive	Active	Active	Active	Active	7.59	–	–	–	–	–
COc1cc2cc(C(=O)N3CC(CCl)c4c3cc(O)c3ccoc43)[nH]c2c(OC)c1OC (stereo not given)	–	–	Active	10.19	–	–	Active	–	–	–	8.43	inactive	Active	7.28	7.40	Active
